Target: T1, His-hSHIP1 enzyme (Homo sapiens, UniProt Q92835)
T1 sequence (Q92835 1-1189): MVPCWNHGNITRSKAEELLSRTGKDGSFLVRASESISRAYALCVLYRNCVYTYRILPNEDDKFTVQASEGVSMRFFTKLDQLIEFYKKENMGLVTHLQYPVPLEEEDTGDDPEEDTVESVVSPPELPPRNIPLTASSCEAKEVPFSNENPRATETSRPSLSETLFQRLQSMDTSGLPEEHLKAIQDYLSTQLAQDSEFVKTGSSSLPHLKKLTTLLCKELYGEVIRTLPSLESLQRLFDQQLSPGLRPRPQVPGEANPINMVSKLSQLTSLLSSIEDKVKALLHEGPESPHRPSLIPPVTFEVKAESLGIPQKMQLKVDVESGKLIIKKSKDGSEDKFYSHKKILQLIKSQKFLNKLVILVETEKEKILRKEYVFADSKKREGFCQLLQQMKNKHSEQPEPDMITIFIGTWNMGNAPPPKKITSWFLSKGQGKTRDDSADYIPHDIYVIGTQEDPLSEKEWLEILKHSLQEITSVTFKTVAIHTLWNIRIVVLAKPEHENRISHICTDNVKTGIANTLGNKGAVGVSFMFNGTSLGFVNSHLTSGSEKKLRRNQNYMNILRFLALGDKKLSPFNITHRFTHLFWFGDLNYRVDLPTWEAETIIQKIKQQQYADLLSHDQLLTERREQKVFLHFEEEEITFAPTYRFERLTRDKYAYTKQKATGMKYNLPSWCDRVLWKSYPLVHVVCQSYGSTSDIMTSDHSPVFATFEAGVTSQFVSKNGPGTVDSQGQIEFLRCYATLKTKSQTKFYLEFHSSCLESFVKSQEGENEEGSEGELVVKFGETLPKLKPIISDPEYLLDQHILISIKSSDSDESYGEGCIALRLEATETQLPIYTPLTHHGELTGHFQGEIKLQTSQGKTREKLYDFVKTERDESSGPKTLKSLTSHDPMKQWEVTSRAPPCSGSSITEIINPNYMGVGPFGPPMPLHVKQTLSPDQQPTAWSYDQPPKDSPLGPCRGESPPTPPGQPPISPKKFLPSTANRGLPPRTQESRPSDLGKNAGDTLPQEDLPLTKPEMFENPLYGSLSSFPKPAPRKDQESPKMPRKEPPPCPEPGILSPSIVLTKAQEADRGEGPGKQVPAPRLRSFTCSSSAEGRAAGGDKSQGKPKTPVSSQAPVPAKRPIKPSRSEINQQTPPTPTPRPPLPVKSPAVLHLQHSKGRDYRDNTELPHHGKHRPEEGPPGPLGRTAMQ
Assay: His-hSHIP1 phosphatase activity assay (IP4 substrate, Biomol Green)
Assay type: biochemical
Conditions: percentage increase relative to background; concentrations ≦300 μM
Experimental: Test compounds were dissolved in 95% ethanol to form stock solutions. Before screening, the stock solutions were diluted with Phosphatase Assay Buffer (20 mM Tris-HCL, 10 mM MgCl2 pH 7.5, 0.02% Tween 20) to form working assay solutions that contained 10% ethanol. The assay was carried out on 96-well microtiter plates using a modified procedure of that reported by Ong et al., Blood 110, 1942-1949, 2007 and Yang et al., Org Lett 7, 1073-1076, 2005, both of which references are incorporated herein by reference in their entirety.
Each reaction contained 5 μL of His-hSHIP1 enzyme (15-20 ng), 10 μL of the substrate, 1,3,4,5-inositol tetrakisphosphate (IP4; 50 μM final), 5 μL of Phosphatase Assay Buffer, and 5 μL of test compound at various concentrations in 10% ethanol (0-300 μM final). Control blanks were also prepared by replacing His-hSHIP1 enzyme, IP4, or test compounds with Phosphatase Assay Buffer. After adding the reaction components in a 96-well microtiter plate on ice, the reaction was mixed by briefly shaking the plate vigorously. The reaction was then incubated at 37° C. for 15 min with gentle shaking followed by addition of 100 μL of Biomol Green Reagent (BIOMOL, PA, USA) to terminate the reaction. The free phosphate released from IP4 by His-hSHIP1 bound to the Biomol Green Reagent, turning the solution green in colour. After incubating the mixture for 20 min at room temperature for colour development, the absorbance was read with a SpectraMax Plus 96-well plate reader (Molecular Devices, Sunnyvale, Calif., USA) at a wavelength of 650 nm.
Percent (%) activation in Table 2 is expressed as a percentage increase relative to background. Scoring is expressed as follows: + (<50%); ++ (≧50% but <65%); +++ (≧65%).

In the case of `COc1cc(C)c2c(c1)OC[C@@H]1[C@@]3(C)CCCC(C)(C)[C@@H]3CC[C@@]21C` [Compound No. 5, (1R,10R,11S,16S)-5-methoxy-1,3,11,15,15-pentamethyl-8-oxatetracyclo[8.8.0.0^2,7.0^11,16]octadeca-2,4,6-triene], the “Scoring: percent (%) activation of His-hSHIP1 enzyme” value (“Scoring: percent (%) activation” below) is reported as “++ (≧50% but <65%)”.
With `COc1cc(C)cc2c1[C@]1(C)CC[C@H]3C(C)(C)CCC[C@]3(C)[C@H]1CS2` [Compound No. 14, (1R,10R,11S,16S)-3-methoxy-1,5,11,15,15-pentamethyl-8-thiatetracyclo[8.8.0.0^2,7.0^11,16]octadeca-2,4,6-triene] the “Scoring: percent (%) activation” value was “+ (<50%)”.
For `Cc1cc(O)c2c(c1)SC[C@@H]1[C@@]3(C)CCCC(C)(C)[C@@H]3CC[C@@]21C` [Compound No. 15, (1R,10R,11S,16S)-1,5,11,15,15-pentamethyl-8-thiatetracyclo[8.8.0.0^2,7.0^11,16]octadeca-2,4,6-trien-3-ol], the “Scoring: percent (%) activation” value was “+++ (≧65%)”.
`Cc1cc(O)c2c(c1)S(=O)(=O)C[C@@H]1[C@@]3(C)CCCC(C)(C)[C@@H]3CC[C@@]21C` [Compound No. 16, (1R,10R,11S,16S)-3-hydroxy-1,5,11,15,15-pentamethyl-8-thiatetracyclo[8.8.0.0^2,7.0^11,16]octadeca-2,4,6-triene-8,8-dione] was tested, and the “Scoring: percent (%) activation” value was “+++ (≧65%)”.
For `COc1cc(OC)c2c(c1)S(=O)(=O)C[C@@H]1[C@@]3(C)CCCC(C)(C)[C@@H]3CC[C@@]21C` [Compound No. 23, (1R,10R,11S,16S)-3,5-dimethoxy-1,11,15,15-tetramethyl-8-thiatetracyclo[8.8.0.0^2,7.0^11,16]octadeca-2,4,6-triene-8,8-dione], the “Scoring: percent (%) activation” value was “+++ (≧65%)”.
`COc1cc(O)cc2c1[C@]1(C)CC[C@H]3C(C)(C)CCC[C@]3(C)[C@H]1CS2` [Compound No. 25, (1R,10R,11S,16S)-3-methoxy-1,11,15,15-tetramethyl-8-thiatetracyclo[8.8.0.0^2,7.0^11,16]octadeca-2,4,6-trien-5-ol] was tested, and the “Scoring: percent (%) activation” value was “++ (≧50% but <65%)”.
For `CC1(C)CCC[C@]2(C)[C@H]3CSc4cc(O)cc(O)c4[C@]3(C)CC[C@@H]12` [Compound No. 26, (1R,10R,11S,16S)-1,11,15,15-tetramethyl-8-thiatetracyclo[8.8.0.0^2,7.0^11,16]octadeca-2,4,6-triene-3,5-diol], the “Scoring: percent (%) activation” value was “+ (<50%)”.
`CC1(C)CCC[C@]2(C)[C@H]3C[S+]([O-])c4cc(O)cc(O)c4[C@]3(C)CC[C@@H]12` (stereo partly drawn) [Compound No. 27, (1R,10R,11S,16S)-3,5-dihydroxy-1,11,15,15-tetramethyl-8-thiatetracyclo[8.8.0.0^2,7.0^11,16]octadeca-2,4,6-trien-8-one] was tested, and the “Scoring: percent (%) activation” value was “++ (≧50% but <65%)”.
For `COc1cc(O)c2c(c1)SC[C@@H]1[C@@]3(C)CCCC(C)(C)[C@@H]3CC[C@@]21C` [Compound No. 29, (1R,10R,11S,16S)-5-methoxy-1,11,15,15-tetramethyl-8-thiatetracyclo[8.8.0.0^2,7.0^11,16]octadeca-2,4,6-trien-3-ol], the “Scoring: percent (%) activation” value was “++ (≧50% but <65%)”.
With `COc1cc(O)c2c(c1)OC[C@@H]1[C@@]3(C)CCCC(C)(C)[C@@H]3CC[C@@]21C` [Compound No. 39, (1R,10R,11S,16S)-5-methoxy-1,11,15,15-tetramethyl-8-oxatetracyclo[8.8.0.0^2,7.0^11,16]octadeca-2,4,6-trien-3-ol] the “Scoring: percent (%) activation” value was “++ (≧50% but <65%)”.
`COc1cc(O)c2c(c1)[C@]1(C)CC[C@H]3C(C)(C)CCC[C@]3(C)[C@H]1CO2` [Compound No. 44, (1R,10R,11S,16S)-4-methoxy-1,11,15,15-tetramethyl-8-oxatetracyclo[8.8.0.0^2,7.0^11,16]octadeca-2,4,6-trien-6-ol] was tested, and the “Scoring: percent (%) activation” value was “++ (≧50% but <65%)”.
`CC1(C)CCC[C@]2(C)[C@H]3CS(=O)(=O)c4cc(O)cc(C(=O)O)c4[C@]3(C)CC[C@@H]12` [compound 65, (1R,10R,11S,16S)-5-hydroxy-1,11,15,15-tetramethyl-8,8-dioxo-8λ^6-thiatetracyclo[8.8.0.0^2,7.0^11,16]octadeca-2,4,6-triene-3-carboxylic acid] was tested, and the “Scoring: percent (%) activation” value was “++ (≧50% but <65%)”.
In the case of `CNC(=O)c1cc(O)cc2c1[C@]1(C)CC[C@H]3C(C)(C)CCC[C@]3(C)[C@H]1CS2(=O)=O` [compound 66, (1R,10R,11S,16S)-5-hydroxy-N,1,11,15,15-pentamethyl-8,8-dioxo-8λ^6-thiatetracyclo[8.8.0.0^2,7.0^11,16]octadeca-2,4,6-triene-3-carboxamide], the “Scoring: percent (%) activation” value is reported as “+ (<50%)”.
In the case of `CNC(=O)c1cc2c(cc1O)S(=O)(=O)C[C@@H]1[C@@]3(C)CCCC(C)(C)[C@@H]3CC[C@@]21C` [compound 73, (1R,10R,11S,16S)-5-hydroxy-N,1,11,15,15-pentamethyl-8,8-dioxo-8λ^6-thiatetracyclo[8.8.0.0^2,7.0^11,16]octadeca-2,4,6-triene-4-carboxamide], the “Scoring: percent (%) activation” value is reported as “+ (<50%)”.
`CNC(=O)c1cc(O)cc2c1[C@]1(C)CC[C@H]3C(C)(C)CCC[C@]3(C)[C@H]1CS2` [compound 76, (1R,10R,11S,16S)-5-hydroxy-N,1,11,15,15-pentamethyl-8-thiatetracyclo-[8.8.0.0^2,7.0^11,16]octadeca-2,4,6-triene-3-carboxamide] was tested, and the “Scoring: percent (%) activation” value was “+ (<50%)”.
With `CC1(C)CCC[C@]2(C)[C@H]3CS(=O)(=O)c4cc(O)cc(C#N)c4[C@]3(C)CC[C@@H]12` [compound 79, (1R,10R,11S,16S)-5-hydroxy-1,11,15,15-tetramethyl-8,8-dioxo-8λ^6-thiatetracyclo[8.8.0.0^2,7.0^11,16]octadeca-2,4,6-triene-3-carbonitrile] the “Scoring: percent (%) activation” value was “+ (<50%)”.
`COc1cc(C(=O)O)cc2c1[C@]1(C)CC[C@H]3C(C)(C)CCC[C@]3(C)[C@H]1CS2(=O)=O` [compound 80, (1R,10R,11S,16S)-3-methoxy-1,11,15,15-tetramethyl-8,8-dioxo-8λ^6-thiatetracyclo[8.8.0.0^2,7.0^11,16]octadeca-2,4,6-triene-5-carboxylic acid] was tested, and the “Scoring: percent (%) activation” value was “+ (<50%)”.
With `COC(=O)c1cc(C(=O)O)cc2c1[C@]1(C)CC[C@H]3C(C)(C)CCC[C@]3(C)[C@H]1CS2(=O)=O` [compound 84, (1R,10R,11S,16S)-3-(methoxycarbonyl)-1,11,15,15-tetramethyl-8,8-dioxo-8λ^6-thiatetracyclo[8.8.0.0^2,7.0^11,16]octadeca-2,4,6-triene-5-carboxylic acid] the “Scoring: percent (%) activation” value was “+ (<50%)”.
With `CC1(C)CCC[C@]2(C)[C@H]3CS(=O)(=O)c4cc(C(=O)O)cc(C(=O)O)c4[C@]3(C)CC[C@@H]12` [compound 85, (1R,10R,11S,16S)-1,11,15,15-tetramethyl-8,8-dioxo-8λ^6-thiatetracyclo[8.8.0.0^2,7.0^11,16]octadeca-2,4,6-triene-3,5-dicarboxylic acid] the “Scoring: percent (%) activation” value was “+ (<50%)”.

Source: patent publication US8101605B2, “SHIP1 modulators and methods related thereto” (Aquinox Pharmaceuticals Inc., priority 2009, dated 2012)
